In one data set the target is T1, PPARα receptor (Homo sapiens, UniProt Q07869).
T1 sequence (Q07869 174-468 limits assumed): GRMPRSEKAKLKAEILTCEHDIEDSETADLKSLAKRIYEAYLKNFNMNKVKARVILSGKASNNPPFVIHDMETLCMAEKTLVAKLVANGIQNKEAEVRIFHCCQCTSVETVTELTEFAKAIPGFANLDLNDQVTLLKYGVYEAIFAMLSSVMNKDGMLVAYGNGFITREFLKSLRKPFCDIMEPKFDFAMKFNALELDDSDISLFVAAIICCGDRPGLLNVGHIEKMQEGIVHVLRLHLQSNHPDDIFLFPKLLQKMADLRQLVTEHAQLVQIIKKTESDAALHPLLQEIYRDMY
Description: Binding and cotransfection studies, PPARα ("binding assay"). The method, then: (§1) DNA-dependent binding (ABCD binding) is carried out using SPA technology with PPAR receptors. Tritium-labeled PPARCX agonists are used as radioligands for generating displacement curves and IC50 values with compounds of the invention. Cotransfection assays are carried out in CV-1 cells. The reporter plasmid contains an acylCoA oxidase (AOX) PPRE and TK promoter upstream of the luciferase reporter cDNA. Appropriate PPARs are constitutively expressed using plasmids containing the CMV promoter. For PPARα, interference by endogenous PPARγ in CV-1 cells is an issue. In order to eliminate such interference, a GAL4 chimeric system is used in which the DNA binding domain of the transfected PPAR is replaced by that of GAL4, and the GAL4 response element is utilized in place of the AOX PPRE. Cotransfection efficacy is determined relative to PPARα agonist reference molecules. Efficacies are determined by computer fit to a concentration-response curve, or in some cases at a single high concentration of agonist (10 μM).
(§2) These studies are carried out to evaluate the ability of compounds of the invention to bind to and/or activate various nuclear transcription factors, particularly huPPARα (“hu” indicates “human”). These studies provide in vitro data concerning efficacy and selectivity of compounds of the invention. Furthermore, binding and cotransfection data for compounds of the invention are compared with corresponding data for marketed compounds that act on huPPARα.

The target of data set [1] is T2, PXR (human SXR ligand binding domain) (Homo sapiens, UniProt O75469).
T2 construct: expressed in transfected cells; host or cells: HuH7 (human liver) cells
T2 sequence (O75469 146-433 limits assumed): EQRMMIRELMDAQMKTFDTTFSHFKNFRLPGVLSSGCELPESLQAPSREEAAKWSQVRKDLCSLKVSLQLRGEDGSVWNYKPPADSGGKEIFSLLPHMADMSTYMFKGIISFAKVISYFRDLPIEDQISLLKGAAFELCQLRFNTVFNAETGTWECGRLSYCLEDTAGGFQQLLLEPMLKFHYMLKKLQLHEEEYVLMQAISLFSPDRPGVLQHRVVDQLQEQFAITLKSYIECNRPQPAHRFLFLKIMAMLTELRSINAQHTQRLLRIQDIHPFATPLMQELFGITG
In words: PXR Assay: GAL4PXR/GAL4 response element reporter assay in HuH7 cells. The format is cell-based. The conditions noted are these: 24 h, versus maximum stimulation with rifampicin. The method, then:
PXR Assay: GAL4PXR/GAL4 Response Element Reporter Assays in HuH7 Cells:
Human liver HuH7 cells are co-transfected using Fugene. The reporter plasmid, containing five Gal4 binding site and major late promoter of adenovirus upstream of the luciferase reporter cDNA, is transfected with a plasmid constitutively expressing a hybrid receptor consistent of GAL4 DNA binding domain and human SXR ligand binding domain using viral SV40 early promoter. Cells are transfected with 10 μg of total DNA/10^6 cells in T225 cm^2 flasks in DMEM:F12 (3:1) media with 10% charcoal-stripped Fetal Bovine Serum (FBS). After an overnight incubation, transfected cells are trypsinized, plated in 96 well dishes in DMEM:F12 (3:1) media with 10% charcoal-stripped FBS, incubated for 4 h and then exposed to 0.8 nM to 50 μM of test compounds in half log dilutions. After 24 h of incubations with compounds, cells are lysed and luciferase activity is determined Data is fit to a 4 parameter-fit logistics to determine EC50 values. The % efficacy is determined versus maximum stimulation obtained with rifampicin.
On the technique in general: In a reporter assay the amount or activity of a reporter protein is the signal.

Another data set concerns the target T3, PPARδ receptor (Homo sapiens, UniProt Q03181).
T3 sequence (Q03181 1-441): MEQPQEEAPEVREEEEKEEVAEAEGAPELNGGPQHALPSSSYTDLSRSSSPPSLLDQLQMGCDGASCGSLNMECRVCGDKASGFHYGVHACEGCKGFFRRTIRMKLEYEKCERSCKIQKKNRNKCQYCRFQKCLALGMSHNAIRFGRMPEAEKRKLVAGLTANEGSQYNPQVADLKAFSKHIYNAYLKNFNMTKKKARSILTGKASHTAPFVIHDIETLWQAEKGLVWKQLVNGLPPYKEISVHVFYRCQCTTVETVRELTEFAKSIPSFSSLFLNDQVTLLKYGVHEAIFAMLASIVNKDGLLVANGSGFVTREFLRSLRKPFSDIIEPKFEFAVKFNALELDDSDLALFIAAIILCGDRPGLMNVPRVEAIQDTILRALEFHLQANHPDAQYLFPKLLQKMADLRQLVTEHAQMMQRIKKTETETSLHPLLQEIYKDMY
Description: Binding and cotransfection studies, PPARδ ("binding assay"). Here is the method: as §1, §2

For data set [2], the target named is T4, Pregnane X Receptor (PXR) (Homo sapiens, UniProt O75469).
T4 sequence (O75469 1-434): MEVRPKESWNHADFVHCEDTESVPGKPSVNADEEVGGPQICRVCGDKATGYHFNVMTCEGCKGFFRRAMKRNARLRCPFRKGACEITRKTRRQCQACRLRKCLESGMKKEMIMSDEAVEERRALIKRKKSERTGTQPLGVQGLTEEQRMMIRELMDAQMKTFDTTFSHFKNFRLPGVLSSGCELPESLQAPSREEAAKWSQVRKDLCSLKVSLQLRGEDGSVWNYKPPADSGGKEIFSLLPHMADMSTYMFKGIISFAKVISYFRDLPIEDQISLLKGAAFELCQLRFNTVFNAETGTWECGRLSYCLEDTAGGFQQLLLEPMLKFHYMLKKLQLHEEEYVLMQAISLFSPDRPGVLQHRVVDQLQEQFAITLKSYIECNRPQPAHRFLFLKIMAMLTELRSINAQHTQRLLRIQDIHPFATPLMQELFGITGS
The conditions noted are these: reported in background section; cited from earlier work.

What is called EC50 is the concentration at which the effect is half-maximal. Higher therefore signals a need for much substance. Regarding `Cc1cc(OCc2nn(-c3ccc(C(F)(F)F)cc3)c(=O)n2C(C)C)ccc1OC(C)(C)C(=O)O` [Example 1, 2-{4-[4-Isopropyl-5-oxo-1-(4-trifluoromethyl-phenyl)-4,5-dihydro-1H-[1,2,4]triazol-3-ylmethoxy]-2-methyl-phenoxy}-2-methyl-propionic acid], the values for the EC50 at PPARα receptor and on PPARδ receptor were 309 nM and 63.4 nM, respectively. In addition, the “PXR (% efficacy versus max stimulation with Rifampicin)” value in data set [1] amounted to 32.4%.
For the molecule `COCCn1c(COc2ccc(OC(C)(C)C(=O)O)c(C)c2)nn(-c2ccc(C(F)(F)F)cc2)c1=O` [Example 2, 2-{4-[4-(2-Methoxy-ethyl)-5-oxo-1-(4-trifluoromethyl-phenyl)-4,5-dihydro-1H-[1,2,4]triazol-3-ylmethoxy]-2-methyl-phenoxy}-2-methyl-propionic acid], the EC50 on PPARα receptor was 256 nM; on PPARδ receptor, 297 nM. In addition, the “PXR (% efficacy versus max stimulation with Rifampicin)” value in data set [1] is reported as 52.8%.
For `CC(C)(Oc1ccc(OC(CCCC(F)(F)F)c2nn(-c3ccc(C(F)(F)F)cc3)c(=O)n2-c2c(F)cccc2F)cc1)C(=O)O` (racemic) [Example 57, 2-(4-{1-[4-(2,6-Difluoro-phenyl)-5-oxo-1-(4-trifluoromethyl-phenyl)-4,5-dihydro-1H-[1,2,4]triazol-3-yl]-5,5,5-trifluoro-pentyloxy}-phenoxy)-2-methyl-propionic acid], the values for the EC50 at PPARα receptor and at PPARδ receptor were 872 nM and 46.4 nM, respectively. Further, the “PXR (% efficacy versus max stimulation with Rifampicin)” value in data set [1] was 13.5%.
Regarding `Cc1cc(OCc2nn(-c3ccc(C(F)(F)F)cc3)c(=O)n2-c2ccccc2F)ccc1OC(C)(C)C(=O)O` [Example 13], the EC50 came to 19.5 nM on PPARα receptor and 14 nM on PPARδ receptor. Further, the “PXR (% efficacy versus max stimulation with Rifampicin)” value in data set [1] is given as 57.8%.
On to `Cc1c(C)c2c(c(C)c1O)CCC(C)(COc1ccc(CC3SC(=O)NC3=O)cc1)O2` (stereo not shown) [troglitazone], for which the PXR activation entry in data set [2] is “activated the Pregnane X Receptor (PXR)”.

The values are drawn from patent US20100099725A1, “PEROXISOME PROLIFERATOR ACTIVATED RECEPTOR MODULATORS” (priority 2007, published 2010).
